Literature values, collected in patent US20050065133A1, “Pharmaceutical compositions and methods comprising combinations of 2-alkylidene-19-nor-vitamin D derivatives and an EP2 or EP4 selective agonist” (Pfizer Inc, priority 2003, published 2005).
Like-named read-outs stand apart in the source and are kept apart here.

Tests used:
[1] = tested on: Male Holtzman strain weanling rats; conditions: single intrajugular injection, 650 pmol, 24 h later, mean ± SEM
Male weanling rats = conditions: for Serum Calcium (mg/100 ml): intraperitoneal, vitamin D-deficient low-calcium diet, 24 h after last dose, mean ± SEM

SMILES | Serum Calcium (mg/100 ml) [1] | Serum Calcium (mg/100 ml) (Male weanling rats; 130 pmol/day/7 days) | Serum Calcium (mg/100 ml) (Male weanling rats; 260 pmol/day/7 days) | inducing differentiation of HL-60 cells to the monocyte, in words (HL-60 cells) | selectivity for bone calcium mobilization over intestinal calcium transport, in words (Male weanling rats; chronic 7-day dosing) | bone calcium mobilization activity relative to 1,25-(OH)2D3 (Male weanling rats; chronic 7-day dosing, stated as likely) | bone calcium mobilization, in words (Male weanling rats; given for 7 days in a chronic mode, 130 and 260 pmol/day) | Serum Calcium (mg/100 ml) (Male weanling rats; 260 pmol/day/7 days, listed as 2-methylene-19-nor-20S-1,25-(OH)2D3)
C=C1/C(=C\C=C2/CCC[C@]3(C)[C@@H]([C@H](C)CCCC(C)(C)O)CC[C@@H]23)C[C@@H](O)C[C@@H]1O [1,25-(OH)2D3, 1,25-dihydroxyvitamin D3, reference compound] | 5.7 ± 0.2 mg/100 ml | 13.8 mg/100 ml | 7.2 ± 0.5 mg/100 ml | – | – | – | – | –
C=C1[C@H](O)CC(=C/C=C2\CCC[C@]3(C)[C@@H]([C@H](C)CCCC(C)(C)O)CC[C@@H]23)C[C@H]1O [2-Methylene-19-Nor-1,25-(OH)2D3, 1α,25-dihydroxy-2-methylene-19-nor-vitamin D3] | 6.4 ± 0.1 mg/100 ml | 9.9 ± 0.2 mg/100 ml | 9.6 ± 0.3 mg/100 ml | activity similar to 1,25-(OH)2D3 | selective for the mobilization of calcium from bone | 10-100 times | extremely strong | –
C=C1[C@H](O)CC(=C/C=C2\CCC[C@]3(C)[C@@H]([C@@H](C)CCCC(C)(C)O)CC[C@@H]23)C[C@H]1O [2-Methylene-19-Nor-20S-1,25-(OH)2D3, (20S)-1α,25-dihydroxy-2-methylene-19-nor-vitamin D3] | 8.0 ± 0.1 mg/100 ml | 13.8 ± 0.5 mg/100 ml | 14.4 ± 0.6 mg/100 ml | extremely potent | selective for the mobilization of calcium from bone | – | – | 14 mg/100 ml
